Results from PMC11046306, “METTL17 is an Fe-S cluster checkpoint for mitochondrial translation” (Molecular cell, 2024).

Molecular target: T1, mS29 (Saccharomyces cerevisiae, UniProt Q01163)
T1 construct: gene RSM23; native subunit within the mitoribosomal small subunit purified from yeast mitochondria
Experiment: cryo-EM structure of the SSU […] Å
Assay type: binding
Conditions: within the mitoribosomal SSU; nucleotide pocket; reassigned from GDP

Nc1ncnc2c1ncn2[C@@H]1O[C@H](COP(=O)(O)OP(=O)(O)OP(=O)(O)O)[C@@H](O)[C@H]1O [adenosine triphosphate]
cryo-EM structure of the SSU 2.3 Å: guanosine diphosphate (GDP) to adenosine triphosphate (ATP) in the nucleotide pocket of the protein mS29
